Patent US6344436B1, “Lipophilic peptides for macromolecule delivery” (Baylor College of Medicine, priority 1996, dated 2002)
Ends that are not written are not given here. * marks the point of attachment. N,N‑distearylglycyl = CCCCCCCCCCCCCCCCCCN(CCCCCCCCCCCCCCCCCC)CC(=O)*

Columns and labels:
293 epithelial cells = experiment: Transfection of 293 epithelial cells grown in lovastatin to up-regulate LDL receptors; type: cell-based; settings: for transfection ability of peptide-macromolecule complexes (FIG. 10): comparison between complexes
Method: The ability of the formulations of example three to transfect cells was tested in 293 epithelial cells grown in 1 μg mL^−1 lovastatin overnight to up-regulate LDL receptors. […] As expected from the reduced binding of the mutant peptide to the LDL receptor, expression by mutant peptide complexes was about 5% of that observed with the wild-type apoE peptide complexes. We conclude that the diacyl-peptide functions as a condensing agent, an encapsulation agent, a targeting agent and a lytic agent. Apart from the well defined receptor ligand domain, the sequence regions that contain the other functions remain to be elucidated.

LDL receptor = molecular target: T1, LDL receptor (Homo sapiens, UniProt P01130); experiment: Cytosis and degradation of labeled LDL complexed with lipophilic peptide (FIG. 4); type: cell-based
T1 construct: endogenous in cells
T1 sequence (P01130 22-860, species assumed): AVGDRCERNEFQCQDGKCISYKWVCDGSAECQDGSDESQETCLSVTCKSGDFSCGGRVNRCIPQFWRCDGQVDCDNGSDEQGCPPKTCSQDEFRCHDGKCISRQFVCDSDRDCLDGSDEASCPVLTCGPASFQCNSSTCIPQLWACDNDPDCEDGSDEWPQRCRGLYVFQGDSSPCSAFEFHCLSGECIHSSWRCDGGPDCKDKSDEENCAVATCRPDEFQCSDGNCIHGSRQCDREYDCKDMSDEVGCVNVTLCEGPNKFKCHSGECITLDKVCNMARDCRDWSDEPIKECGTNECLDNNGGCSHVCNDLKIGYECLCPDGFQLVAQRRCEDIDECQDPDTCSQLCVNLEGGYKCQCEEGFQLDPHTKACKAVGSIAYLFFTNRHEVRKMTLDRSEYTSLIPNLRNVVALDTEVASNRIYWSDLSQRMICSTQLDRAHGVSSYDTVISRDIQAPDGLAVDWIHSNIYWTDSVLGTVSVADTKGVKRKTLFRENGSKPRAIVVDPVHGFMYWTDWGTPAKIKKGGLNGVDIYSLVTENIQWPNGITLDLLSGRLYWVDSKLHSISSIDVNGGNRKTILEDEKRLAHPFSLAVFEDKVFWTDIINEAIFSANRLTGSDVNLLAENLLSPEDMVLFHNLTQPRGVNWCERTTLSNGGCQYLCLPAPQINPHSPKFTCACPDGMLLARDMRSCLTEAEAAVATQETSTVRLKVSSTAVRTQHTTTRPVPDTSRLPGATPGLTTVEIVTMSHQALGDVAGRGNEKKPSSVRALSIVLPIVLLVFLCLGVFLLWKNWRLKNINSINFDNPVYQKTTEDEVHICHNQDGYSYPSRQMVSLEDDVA

[1] = Particle size of peptide-macromolecule complex after enmeshment and condensation; type: physicochemical; settings: for particle size: peptide added to DNA in the absence of condensing peptide, CHAPS micelles diluted below cmc
Method: Subsequently, the nucleic acid becomes coated with lipophilic peptide and enmeshed; forming a condensed nucleic acid/lipophilic peptide complex while CHAPS detergent monomers can be dialyzed out of the resulting mixture (FIGURE EIGHT).
The degree of condensation of the nucleic acid given the treatment of example two is shown as FIGURE NINE. When distearyl-glycyl-apoE-3^129-169 was added to DNA previously condensed with K8, the particle size increased only ˜20%. The addition of JTS-1 increased the particle size another 40%. By contrast, addition of distearyl-glycyl-apoE-3^129-169 to DNA in the absence of condensing peptide gave a smaller particle, about 60 nm. Condensation and enmeshment with the distearyl-glycyl-apoE-3^129-169Q142, the mutant peptide, also gave a small, 60 nm monodisperse particle population. When distearyl-glycyl-apoE-3^129-169 in 10 mM CHAPS was diluted without DNA being present, the resulting vesicles were ˜450 nm in diameter. […] Free DNA in the control remained at the top of the gradient, while the enmeshed-condensed complex was found at the bottom of the centrifugation tube.

Substance | transfection ability of peptide-macromolecule complexes (FIG. 10) (293 epithelial cells) | cytosis and degradation of labeled LDL complexed with peptide (FIG. 4) (LDL receptor) | comparative size of peptide complexes ([1]; diameter after condensation of DNA (FIG. 9)) | particle size [1] | increase in particle size ([1]; peptide added to DNA previously condensed with K8) [%] | diameter of resulting vesicles ([1]; peptide in 10 mM CHAPS diluted without DNA being present) [nm] | expression relative to wild-type apoE peptide complexes (293 epithelial cells; 293 epithelial cells, 1 μg mL^−1 lovastatin overnight) | necessity of component for efficient gene transfer (293 epithelial cells; 293 epithelial cells (FIGURE TENc)) | further increase in particle size ([1]; JTS-1 added to K8-condensed DNA plus distearyl-glycyl-apoE-3^129-169) [%]
distearyl-glycyl-apoE-3^129-169 ({N,N‑distearylglycyl}-STEELRVRLASHLRKLRKRLLRDADDLQKRLAVYQAGAREG) | No significant transfection difference | cytosed and subsequently degraded | greatest reduction in diameter | about 60 nm | ~20 | ~450 |  |  | 
distearyl-glycyl-apoE-3^129-169(Q142) | significantly less transfection | significantly less cytosis and degradation |  | 60 nm |  |  | about 5% |  | 
GLFEALLELLESLWELLLEA [JTS-1, reference compound] |  |  |  |  |  |  |  | Neither the galtoselated K8 or JTS-1 were necessary | 40
